In US4818753A, “Synthesis and method of use for 2, 4 diaminoquinazoline” (SRI International, priority 1987, dated 1989):
In brackets after ≈: the same amount, converted by molar mass. Entries after “also recorded” stand apart in the source; their conditions may differ. Read-outs that look alike come from different tables or passages of the source.

Key:
Format in all cases: cell-based
[1] = tested on: 18 yeastlike and 3 Filamentus fungii; assay: Agar dilution assay, whole panel; details: for MIC: 48 h
From the text: (§1) For the agar dilution assay, the test panel consisted of 18 yeastlike and 3 Filamentus fungii. Four media were used. These were yeast nitrogen base dextrose (0.5% agar) (YNBDA); pH 5.5; YNBDA with pH adjusted to pH 7.5; and micrological agar (MA), pH 7.0; and Sabouraud dextrose agar, pH 5.7. The media was manufactured by Difco (Detroit, MI) and prepared according to the manufacturer's instructions.
(§2) The test compounds were solubilized in 10% aqueous DMSO; the control drug, Nystatin, was solublized in 10% aqueous DMF. The drugs were serially diluted twofold in sterile water to yield concentrations of 1.28 mg/ml to […]. One ml of diluted drug was added to 9 ml of cooled (50° C.) molten agar in plastic petri plates to yield final drug concentrations in the agar ranging from 128 to 0.063 ug/ml. Appropriate solvent and media control plates were prepared as well, and all plates stored in the dark at 4° C. overnight. The yeast cultures, maintained in yeast maltose (YM; Difco), were transferred to fresh YM medium and incubating overnight at 37° C. with shaking at 250 rpm. After incubation each culture was diluted in sterile saline to yield concentrations of 3×10^5 to 3×10^6 cfu/ml. Isolates of aspergillis and penicillium were made on potato dextrose agar slants, and spore suspensions were made following vigorous shaking with sterile glass beads. The spore preparation were used as inocula for these fungi.
(§3) Each prepared place was inoculated with the 21-member panel using a Denleigh multipoint inoculator (Sussex, England). The inoculator delivers approximately 1 ul to the agar surface, resulting in inoculation of from 3×10^2 to 3×10^3 cfu. The plates were incubated at 28° C. for 48 h, and the minimum inhibitory concentrations (MIC) of each drug were recorded as the lower concentration of the drug permitting no growth or growth of less than 3 cfu/spot.

[2] = tested on: Ca. guilliermondii MY1019; assay: Agar dilution assay; details: Meyerozyma guilliermondii, MY1019, 48 h, read-out: Minimum inhibitory concentration
From the text: as §1, §2, §3

Ca. rugosa MY1022 = assay: Agar dilution assay; details: Diutina rugosa, MY1022, 48 h, read-out: Minimum inhibitory concentration
From the text: as §1, §2, §3

Ca. albicans MY0992 = assay: Agar dilution assay; details: Candida albicans, MY0992, 48 h, read-out: Minimum inhibitory concentration
From the text: as §1, §2, §3

Ca. tropicalis MY1011 = assay: Agar dilution assay; details: Candida tropicalis, MY1011, 48 h, read-out: Minimum inhibitory concentration
From the text: as §1, §2, §3

[3] = tested on: Cryptococcus neoformans MY1051; assay: Agar dilution assay; details: MY1051, 48 h
From the text: as §1, §2, §3

Candida albicans MY1058 = assay: Agar dilution assay; details: MY1058, 48 h
From the text: as §1, §2, §3

[4] = tested on: Penicillium italicum MF2819; assay: Agar dilution assay; details: MF2819, 48 h
From the text: as §1, §2, §3

Ca. albicans MY1029 = assay: Agar dilution assay; details: Candida albicans, MY1029, 48 h, read-out: Minimum inhibitory concentration
From the text: as §1, §2, §3

Ca. albicans MY1055 = assay: Agar dilution assay; details: Candida albicans, MY1055, 48 h, read-out: Minimum inhibitory concentration
From the text: as §1, §2, §3

Ca. krusei MY1020 = assay: Agar dilution assay; details: Pichia kudriavzevii, MY1020, 48 h, read-out: Minimum inhibitory concentration
From the text: as §1, §2, §3

Ca. albicans MY1013 = assay: Agar dilution assay; details: Candida albicans, MY1013, 48 h, read-out: Minimum inhibitory concentration
From the text: as §1, §2, §3

Cr. neoformans MY1146 = assay: Agar dilution assay; details: Cryptococcus neoformans, MY1146, 48 h, read-out: Minimum inhibitory concentration
From the text: as §1, §2, §3

Sac. cerevisiae MY1027 = assay: Agar dilution assay; details: Saccharomyces cerevisiae, MY1027, 48 h, read-out: Minimum inhibitory concentration
From the text: as §1, §2, §3

[5] = MA pH 7.0, read-out: Minimum inhibitory concentration
[6] = SDA pH 5.7, read-out: Minimum inhibitory concentration
[7] = YNBDA pH 5.5, read-out: Minimum inhibitory concentration
[8] = YNBDA pH 7.5, read-out: Minimum inhibitory concentration

CCCCCCCCc1ccc2nc(N)nc(N)c2c1C [2,4-Diamino-5-methyl-6-n-octylquinazoline]
MIC ([1]; pH 5.7): > 128 µg/mL | MIC ([1]; Candida tropicalis, pH 5.5): ≥ 128 µg/mL | antifungal activity in words ([1]; Table 3 panel): inhibitory for a large variety of yeast and Filamentus fungii; also recorded: extremely toxic with regard to a wide variety of fungi | MIC ([2]; MA pH 7.0): 16 µg/mL (≈ 55.9 µM) | MIC ([2]; SDA pH 5.7): > 128 µg/mL | MIC ([2]; YNBDA pH 5.5): > 128 µg/mL | MIC ([2]; YNBDA pH 7.5): 16 µg/mL (≈ 55.9 µM) | MIC (Ca. rugosa MY1022; pH 5.5, YNBDA pH 5.5): > 128 µg/mL | MIC (Ca. rugosa MY1022; pH 7, MA pH 7.0): 64 µg/mL (≈ 223 µM) | MIC (Ca. rugosa MY1022; pH 7.5, YNBDA pH 7.5): 32 µg/mL (≈ 112 µM) | MIC (Ca. albicans MY0992; MA pH 7.0): 16 µg/mL (≈ 55.9 µM) | MIC (Ca. albicans MY0992; SDA pH 5.7): > 128 µg/mL | MIC (Ca. albicans MY0992; YNBDA pH 5.5): > 128 µg/mL | MIC (Ca. albicans MY0992; YNBDA pH 7.5): 16 µg/mL (≈ 55.9 µM) | MIC (Ca. tropicalis MY1011; MA pH 7.0): 16 µg/mL (≈ 55.9 µM) | MIC (Ca. tropicalis MY1011; SDA pH 5.7): 128 µg/mL (≈ 447 µM) | MIC (Ca. tropicalis MY1011; YNBDA pH 5.5): > 128 µg/mL | MIC (Ca. tropicalis MY1011; YNBDA pH 7.5): 16 µg/mL (≈ 55.9 µM) | MIC [3, 5]: 4 µg/mL (≈ 14 µM) | MIC [3, 6]: 16 µg/mL (≈ 55.9 µM) | MIC [3, 7]: 128 µg/mL (≈ 447 µM) | MIC [3, 8]: 8 µg/mL (≈ 27.9 µM) | MIC (Candida albicans MY1058; [5]): 16 µg/mL (≈ 55.9 µM) | MIC (Candida albicans MY1058; [6]): > 128 µg/mL | MIC (Candida albicans MY1058; [7]): > 128 µg/mL | MIC (Candida albicans MY1058; [8]): 32 µg/mL (≈ 112 µM) | MIC [4, 5]: 4 µg/mL (≈ 14 µM) | MIC [4, 6]: 64 µg/mL (≈ 223 µM) | MIC [4, 7]: 128 µg/mL (≈ 447 µM) | MIC [4, 8]: 8 µg/mL (≈ 27.9 µM) | MIC (Ca. albicans MY1029; MA pH 7.0): 32 µg/mL (≈ 112 µM) | MIC (Ca. albicans MY1029; SDA pH 5.7): > 128 µg/mL | MIC (Ca. albicans MY1029; YNBDA pH 5.5): > 128 µg/mL | MIC (Ca. albicans MY1029; YNBDA pH 7.5): 32 µg/mL (≈ 112 µM) | MIC (Ca. albicans MY1055; MA pH 7.0): 32 µg/mL (≈ 112 µM) | MIC (Ca. albicans MY1055; SDA pH 5.7): > 128 µg/mL | MIC (Ca. albicans MY1055; YNBDA pH 5.5): > 128 µg/mL | MIC (Ca. albicans MY1055; YNBDA pH 7.5): 32 µg/mL (≈ 112 µM) | MIC (Ca. krusei MY1020; MA pH 7.0): 8 µg/mL (≈ 27.9 µM) | MIC (Ca. krusei MY1020; SDA pH 5.7): > 128 µg/mL | MIC (Ca. krusei MY1020; YNBDA pH 5.5): > 128 µg/mL | MIC (Ca. krusei MY1020; YNBDA pH 7.5): 8 µg/mL (≈ 27.9 µM) | MIC (Ca. albicans MY1013; MA pH 7.0): 16 µg/mL (≈ 55.9 µM) | MIC (Ca. albicans MY1013; SDA pH 5.7): 128 µg/mL (≈ 447 µM) | MIC (Ca. albicans MY1013; YNBDA pH 5.5): > 128 µg/mL | MIC (Ca. albicans MY1013; YNBDA pH 7.5): 16 µg/mL (≈ 55.9 µM) | MIC (Cr. neoformans MY1146; MA pH 7.0): 4 µg/mL (≈ 14 µM) | MIC (Cr. neoformans MY1146; SDA pH 5.7): 16 µg/mL (≈ 55.9 µM) | MIC (Cr. neoformans MY1146; YNBDA pH 5.5): 128 µg/mL (≈ 447 µM) | MIC (Cr. neoformans MY1146; YNBDA pH 7.5): 8 µg/mL (≈ 27.9 µM) | MIC (Sac. cerevisiae MY1027; MA pH 7.0): 4 µg/mL (≈ 14 µM) | MIC (Sac. cerevisiae MY1027; SDA pH 5.7): 128 µg/mL (≈ 447 µM) | MIC (Sac. cerevisiae MY1027; YNBDA pH 5.5): > 128 µg/mL | MIC (Sac. cerevisiae MY1027; YNBDA pH 7.5): 4 µg/mL (≈ 14 µM)
